Assay results from paper PMC7262789 (Journal of medicinal chemistry, 2019).

Experiments:
[1] = target: T1, recombinant sEH-P domain (N-terminal domain of sEH) (Homo sapiens, UniProt P34913); assay: FDP-based phosphatase assay, isolated sEH-P domain; type: biochemical; details: for inhibitory potency toward sEH-P (SAR statement in words): FDP substrate, recombinant sEH-P domain
T1 sequence (P34913 1-222): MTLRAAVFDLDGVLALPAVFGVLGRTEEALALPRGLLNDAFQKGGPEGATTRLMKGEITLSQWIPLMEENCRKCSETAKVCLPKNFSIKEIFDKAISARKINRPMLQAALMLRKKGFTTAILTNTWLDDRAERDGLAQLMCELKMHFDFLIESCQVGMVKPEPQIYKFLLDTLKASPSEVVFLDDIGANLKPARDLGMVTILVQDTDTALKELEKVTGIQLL

[2] = target: T2, C-terminal domain of sEH (sEH-H) (Homo sapiens, UniProt P34913); assay: Differential scanning fluorimetry; type: binding; details: inhibitor 50 μM
T2 sequence (P34913 235-555 limits assumed): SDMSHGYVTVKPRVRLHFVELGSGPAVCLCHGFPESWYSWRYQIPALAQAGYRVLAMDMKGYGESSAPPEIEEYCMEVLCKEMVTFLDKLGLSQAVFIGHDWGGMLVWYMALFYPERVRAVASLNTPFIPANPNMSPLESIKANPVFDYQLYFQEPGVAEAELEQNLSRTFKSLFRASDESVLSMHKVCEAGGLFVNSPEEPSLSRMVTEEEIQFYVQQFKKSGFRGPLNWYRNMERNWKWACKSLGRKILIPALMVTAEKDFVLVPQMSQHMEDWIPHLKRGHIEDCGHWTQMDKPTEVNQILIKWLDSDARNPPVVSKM

[3] = target: T3, N-terminal domain of sEH (sEH-P) (Homo sapiens, UniProt P34913); assay: Differential scanning fluorimetry; type: binding; details: inhibitor 50 μM
T3 sequence (P34913 2-224): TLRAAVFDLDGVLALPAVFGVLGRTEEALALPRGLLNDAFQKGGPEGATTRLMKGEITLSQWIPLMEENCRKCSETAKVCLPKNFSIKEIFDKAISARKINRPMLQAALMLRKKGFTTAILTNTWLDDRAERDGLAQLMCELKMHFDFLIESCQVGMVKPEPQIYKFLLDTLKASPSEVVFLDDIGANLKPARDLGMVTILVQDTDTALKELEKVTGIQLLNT

[4] = target: T4, isolated N-terminal domain of sEH (sEH-P) (Homo sapiens, UniProt P34913); assay: DiFMUP-based phosphatase assay, isolated N-terminal domain; details: substrate
T4 sequence (P34913 1-222): T1 sequence (P34913 1-222)

[5] = target: T5, full-length human sEH (Homo sapiens, UniProt P34913); assay: DiFMUP-based phosphatase assay, full-length sEH; details: substrate
T5 sequence (P34913 1-555): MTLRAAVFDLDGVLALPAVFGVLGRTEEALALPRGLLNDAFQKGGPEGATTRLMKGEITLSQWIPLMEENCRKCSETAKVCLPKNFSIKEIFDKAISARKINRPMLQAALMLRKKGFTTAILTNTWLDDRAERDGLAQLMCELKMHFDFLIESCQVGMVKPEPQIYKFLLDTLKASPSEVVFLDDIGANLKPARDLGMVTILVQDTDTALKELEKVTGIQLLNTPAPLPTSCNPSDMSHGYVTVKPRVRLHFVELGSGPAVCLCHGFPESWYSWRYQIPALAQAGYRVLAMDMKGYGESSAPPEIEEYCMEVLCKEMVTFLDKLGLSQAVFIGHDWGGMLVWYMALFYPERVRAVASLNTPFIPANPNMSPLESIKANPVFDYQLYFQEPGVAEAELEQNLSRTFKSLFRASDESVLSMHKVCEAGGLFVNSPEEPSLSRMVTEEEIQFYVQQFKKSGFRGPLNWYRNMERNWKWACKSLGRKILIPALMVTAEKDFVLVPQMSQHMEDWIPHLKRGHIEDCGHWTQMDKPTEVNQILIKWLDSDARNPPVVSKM

Compound: O=C(O)CCc1nc(-c2ccccc2F)c(-c2ccccc2)o1 [20a, 3-(4-(2-Fluorophenyl)-5-phenyloxazol-2-yl)propanoic Acid]
- inhibitory potency toward sEH-P (SAR statement in words) [1]: poorly tolerated

Compound: O=C(O)CCc1nc(-c2ccccc2Cl)c(-c2ccccc2)o1 [20b, 3-(4-(2-Chlorophenyl)-5-phenyloxazol-2-yl)propanoic Acid]
- inhibitory potency toward sEH-P (SAR statement in words) [1]: poorly tolerated

Compound: N#Cc1cccc(-c2nc(CCC(=O)O)oc2-c2ccccc2)c1 [20c, 3-(4-(3-Cyanophenyl)-5-phenyloxazol-2-yl)propanoic Acid]
- inhibitory potency toward sEH-P (SAR statement in words) [1]: retained similar potency as 5

Compound: O=C(O)CCc1nc(-c2cccc(F)c2)c(-c2ccccc2)o1 [20d, 3-(4-(3-Fluorophenyl)-5-phenyloxazol-2-yl)propanoic Acid]
- inhibitory potency toward sEH-P (SAR statement in words) [1]: retained similar potency as 5

Compound: O=C(O)CCc1nc(-c2ccc(F)cc2)c(-c2ccccc2)o1 [20e, 3-(4-(4-Fluorophenyl)-5-phenyloxazol-2-yl)propanoic Acid]
- inhibitory potency toward sEH-P (SAR statement in words) [1]: only slightly diminished the potency

Compound: O=C(O)CCc1nc(-c2ccc(C(F)(F)F)cc2)c(-c2ccccc2)o1 [20f, 3-(5-Phenyl-4-(4-(trifluoromethyl)phenyl)oxazol-2-yl)propanoic Acid]
- inhibitory potency toward sEH-P (SAR statement in words) [1]: loss of activity

Compound: N#Cc1ccc(-c2nc(CCC(=O)O)oc2-c2ccccc2)cc1 [20g, 3-(4-(4-Cyanophenyl)-5-phenyloxazol-2-yl)propanoic Acid]
- inhibitory potency toward sEH-P (SAR statement in words) [1]: loss of activity

Compound: O=C(O)CCc1nc(-c2ccc(Cl)cc2)c(-c2ccccc2)o1 [20h, 3-(4-(4-Chlorophenyl)-5-phenyloxazol-2-yl)propanoic Acid]
- inhibitory potency toward sEH-P (SAR statement in words) [1]: slightly enhanced inhibitory potency

Compound: COc1ccc(-c2nc(CCC(=O)O)oc2-c2ccccc2)cc1 [20i, 3-(4-(4-Methoxyphenyl)-5-phenyloxazol-2-yl)propanoic Acid]
- inhibitory potency toward sEH-P (SAR statement in words) [1]: decreased the activity

Compound: O=C(O)CCc1nc(-c2ccc(Cl)c(Cl)c2)c(-c2ccccc2)o1 [20k, 3-(4-(3,4-Dichlorophenyl)-5-phenyloxazol-2-yl)propanoic Acid]
- increase in sEH-P inhibition ([1]; second chlorine at meta position, compared with 20h): more than 10 fold

Compound: O=C(O)CCc1nc(-c2ccc(Cl)cc2Cl)c(-c2ccccc2)o1 [20l, 3-(4-(2,4-Dichlorophenyl)-5-phenyloxazol-2-yl)propanoic Acid]
- inhibitory potency toward sEH-P (SAR statement in words) [1]: did not lead to potency improvement

Compound: O=C(O)CCc1nc(-c2cc(Cl)cc(Cl)c2)c(-c2ccccc2)o1 [20m, 3-(4-(3,5-Dichlorophenyl)-5-phenyloxazol-2-yl)propanoic Acid]
- inhibitory potency toward sEH-P (SAR statement in words) [1]: did not lead to potency improvement

Compound: O=C(O)/C=C/c1nc(-c2ccc(Cl)c(Cl)c2)c(-c2ccccc2)o1 [22a, 3-(4-(3,4-Dichlorophenyl)-5-phenyloxazol-2-yl)acrylic Acid]
- loss of potency ([1]; rigidization of the ethyl linker by a double bond): 2 fold

Compound: O=C(O)c1ccccc1-c1nc(-c2ccc(Cl)c(Cl)c2)c(-c2ccccc2)o1 [22c, 2-(4-(3,4-Dichlorophenyl)-5-phenyloxazol-2-yl)benzoic Acid]
- inhibitory potency toward sEH-P (SAR statement in words) [1]: did not retain this high potency

Compound: O=C(O)c1ccc(-c2nc(-c3ccc(Cl)c(Cl)c3)c(-c3ccccc3)o2)cc1 [22e, 4-(4-(3,4-Dichlorophenyl)-5-phenyloxazol-2-yl)benzoic Acid]
- inhibitory potency toward sEH-P (SAR statement in words) [1]: did not retain this high potency

Compound: O=C(O)CCCc1nc(-c2ccc(Cl)c(Cl)c2)c(-c2ccncc2)o1 [28a, 4-(4-(3,4-Dichlorophenyl)-5-(pyridin-4-yl)oxazol-2-yl)butanoic Acid]
- inhibitory potency toward sEH-P (SAR statement in words) [1]: not favored

Compound: O=C(O)CCCc1nc(-c2ccc(Cl)c(Cl)c2)c(-c2cccnc2)o1 [28b, 4-(4-(3,4-Dichlorophenyl)-5-(pyridin-3-yl)oxazol-2-yl)butanoic Acid]
- inhibitory potency toward sEH-P (SAR statement in words) [1]: not favored

Compound: O=C(O)CCCc1nc(-c2ccc(Cl)c(Cl)c2)c(-c2cccc(F)c2)o1 [28e, 4-(4-(3,4-Dichlorophenyl)-5-(3-fluorophenyl)oxazol-2-yl)butanoic Acid]
- inhibitory potency toward sEH-P (SAR statement in words) [1]: slight preference

Compound: N#Cc1cccc(-c2oc(CCCC(=O)O)nc2-c2ccc(Cl)c(Cl)c2)c1 [28g, 4-(5-(3-Cyanophenyl)-4-(3,4-dichlorophenyl)oxazol-2-yl)butanoic Acid]
- inhibitory potency toward sEH-P (SAR statement in words) [1]: slight preference

Compound: C#Cc1cccc(-c2oc(CCCC(=O)O)nc2-c2ccc(Cl)c(Cl)c2)c1 [28j, 4-(4-(3,4-Dichlorophenyl)-5-(3-ethynylphenyl)oxazol-2-yl)butanoic Acid]
- inhibitory potency toward sEH-P (SAR statement in words) [1]: slight preference

Compound: O=C(Nc1ccc(I)cc1)NC1CCCCC1 [CIU, N-cyclohexyl-N′-(4-iodophenyl)urea, reference compound]
- stabilization of the C-terminal domain in DSF [2]: significantly increased
- stabilization of the N-terminal domain in DSF [3]: no stabilizing effect

Compound: Cc1cc(=O)oc2c(F)c(OP(=O)(O)O)c(F)cc12 [DiFMUP, reference compound]
- Km [4]: 220 µM
- Km [5]: 628 µM

Compound: CC(=O)N[C@@H](CSC/C=C(\C)CC/C=C(\C)CCC=C(C)C)C(=O)O [compound 2, N-acetyl-S-farnesyl-L-cysteine]
- stabilization of the N-terminal domain in DSF [3]: able to stabilize

Compound: O=C(O)CSc1nc(-c2ccccc2)c(-c2ccccc2)o1 [compound 9, 2-((4,5-Diphenyloxazol-2-yl)thio)acetic Acid]
- inhibitory potency toward sEH-P (SAR statement in words) [1]: slightly diminished the potency

Compound: NC(=O)CCc1nc(-c2ccccc2)c(-c2ccccc2)o1 [compound 12, 3-(4,5-Diphenyloxazol-2-yl)propanamide]
- inhibitory potency toward sEH-P (SAR statement in words) [1]: complete loss of activity

Compound: O=C(O)CCCc1nc(-c2ccc(Cl)c(Cl)c2)co1 [compound 25, 4-(4-(3,4-Dichlorophenyl)oxazol-2-yl)butanoic Acid]
- inhibitory potency toward sEH-P (SAR statement in words) [1]: potency dropped dramatically

Compound: O=C(O)CCCc1nc(-c2ccc(Cl)c(Cl)c2)c(Br)o1 [compound 26, 4-(5-Bromo-4-(3,4-dichlorophenyl)oxazol-2-yl)butanoic Acid]
- inhibitory potency toward sEH-P (SAR statement in words) [1]: partially restored
